{
  "source": "patent US20260001928A1",
  "about": "(CORTERIA PHARMACEUTICALS, priority 2022, published 2026)",
  "key": {"[1]": {"assay": "Pharmacokinetics in male Sprague Dawley rats after subcutaneous administration", "assay_type": "in vivo", "conditions": "plasma, rat"}, "[2]": {"target": "T1, human CRF2a receptor (Homo sapiens, UniProt Q13324)", "T1 construct": "expressed in transfected cells; host or cells: TeloHEAC cells", "T1 sequence (Q13324 1-411)": "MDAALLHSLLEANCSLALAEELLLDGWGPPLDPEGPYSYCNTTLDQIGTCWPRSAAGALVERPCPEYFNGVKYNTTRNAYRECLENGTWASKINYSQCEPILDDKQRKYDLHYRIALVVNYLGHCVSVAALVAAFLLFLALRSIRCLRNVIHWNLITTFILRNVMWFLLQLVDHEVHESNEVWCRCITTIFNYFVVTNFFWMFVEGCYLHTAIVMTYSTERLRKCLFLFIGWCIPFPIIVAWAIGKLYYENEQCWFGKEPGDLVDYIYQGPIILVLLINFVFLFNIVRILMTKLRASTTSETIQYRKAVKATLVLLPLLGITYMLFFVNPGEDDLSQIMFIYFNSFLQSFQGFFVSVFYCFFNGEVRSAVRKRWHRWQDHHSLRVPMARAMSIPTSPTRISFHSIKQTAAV", "assay": "Activity at human CRF2a receptor, cAMP functional assay in TeloHEAC cells", "assay_type": "cell-based", "conditions": "TeloHEAC cells stably expressing human CRF2a receptor, relative to urocortin 2 (100 nM = 100%)", "in_short": "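TeloHEAC cells stably expressing human CRF2a (10000 cells/well, suspended in HBSS/20 mM HEPES with 2 mM IBMX) were exposed to compounds for 30 min at 37 °C. cAMP was read as the 665/620 nm fluorescence ratio after 1 h at room temperature. EC50 was derived relative to 100 nM urocortin 2, set as 100%.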"}, "[3]": {"target": "T2, CFR1R receptor (Homo sapiens, UniProt P34998)", "T2 construct": "host or cells: CHO-K1 (clone 2)", "T2 sequence (P34998 24-415)": "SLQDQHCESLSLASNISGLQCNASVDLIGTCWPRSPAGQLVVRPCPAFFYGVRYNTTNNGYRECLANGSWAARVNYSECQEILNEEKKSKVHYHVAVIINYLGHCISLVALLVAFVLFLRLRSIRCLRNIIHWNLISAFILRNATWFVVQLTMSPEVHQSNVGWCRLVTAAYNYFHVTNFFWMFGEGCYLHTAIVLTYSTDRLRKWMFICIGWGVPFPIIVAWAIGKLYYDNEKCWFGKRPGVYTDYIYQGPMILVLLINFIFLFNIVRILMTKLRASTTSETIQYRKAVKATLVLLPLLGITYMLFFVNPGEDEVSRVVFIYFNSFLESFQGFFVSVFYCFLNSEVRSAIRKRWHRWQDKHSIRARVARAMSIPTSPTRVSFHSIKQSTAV", "assay": "Activity at anti-target CFR1R receptor, cAMP assay in CRF1R-overexpression CHO-K1 cells", "assay_type": "cell-based", "conditions": "100% = Sauvagine at 100 nM", "in_short": "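Signal is normalised to 100 nM Sauvagine, taken as 100% activation, in clone 2 cells plated at a final 4000 cells/well from frozen stocks.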"}, "[4]": {"assay": "Chemical stability in buffer (pH 7.4 / pH 4.5), % purity loss", "assay_type": "physicochemical", "conditions": "100 mM phosphate buffer pH 7.4; 40° C. vs 5° C.; 14 or 28 days", "in_short": "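Compounds dissolved at 10 mg/mL target in 100 mM phosphate (pH 7.4) or 100 mM acetate (pH 4.5) buffer for 1 h at room temperature, then centrifuged. Diluted supernatant stored at 5 °C or 40 °C for 14 or 28 days; % purity loss by LC-UV.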"}, "[5]": {"assay": "Pharmacokinetics in male Sprague Dawley rats after subcutaneous administration", "assay_type": "in vivo", "conditions": "plasma, rat, SC, 0.05 mg/kg", "procedure": "The pharmacokinetics of UCN-2 derivatives was studied in male Sprague Dawley rats after subcutaneous administration (SC) at 0.05, 0.1, 0.3 or 1 mg/kg. Peptides were formulated as a solution in 10 mM phosphate pH 7.4 buffer+glycerol 85% (2.3% v/v)). […] The supernatant (200 μL) was analyzed by LC-MSMS. Pharmacokinetic parameters were calculated using established non-compartmental methods. The area under the plasma concentration curve versus time (AUC) was determined using Watson LIMS (version 7.6), with linear trapezoidal interpolation in the ascending slope and logarithmic trapezoidal interpolation in the descending slope. The portion of the AUC from the last measurable concentration to infinity was estimated from the equation, Ct/kel, where Ct represents the last measurable concentration and kel is the elimination rate constant. The latter was determined from the concentration curve versus time by linear regression at the terminal phase of the semi-logarithmic plot."}},
  "note": "*1 amine or outer side, *2 acyl side, *3 side chain or, on linkers, in order; H or OH if unused. Where a SMILES comes first, the peptide text is derived from it. Side-chain parts run from the residue outwards. [ ]: non-standard residue; d: D form. The star is where a group is joined. C20 diacid = O=C(O)CCCCCCCCCCCCCCCCCCC(=O)*; C18 diacid = O=C(O)CCCCCCCCCCCCCCCCC(=O)*; γGlu = O=C(O)[C@H](CCC(=O)[*:2])N[*:1]; AEEA = NCCOCCOCC(=O)O; Aib = CC(C)(N)C(=O)O",
  "data": [
    {"compound": "CC[C@H](C)[C@H](N)C(=O)N[C@H](C(=O)N[C@@H](CC(C)C)C(=O)N[C@@H](CO)C(=O)N[C@@H](CC(C)C)C(=O)N[C@@H](CC(=O)O)C(=O)N[C@H](C(=O)N1CCC[C@H]1C(=O)N[C@H](C(=O)N[C@@H](CCCCN)C(=O)N[C@@H](CC(C)C)C(=O)N[C@@H](CCCCNC(=O)COCCOCCNC(=O)COCCOCCNC(=O)CC[C@H](NC(=O)CCCCCCCCCCCCCCCCC(=O)O)C(=O)O)C(=O)N[C@@H](CCCCN)C(=O)N[C@H](C(=O)N[C@@H](CC(C)C)C(=O)N[C@@H](CC(C)C)C(=O)N[C@@H](CCC(=O)O)C(=O)N[C@@H](CCC(N)=O)C(=O)N[C@@H](CCC(=O)O)C(=O)N[C@@H](CCCCN)C(=O)N[C@@H](CCC(N)=O)C(=O)N[C@@H](CCCCN)C(=O)N[C@@H](CCCCN)C(=O)N[C@@H](CCC(N)=O)C(=O)N[C@@H](CCCNC(=N)N)C(=O)N[C@@H](CCC(=O)O)C(=O)N[C@@H](CCC(N)=O)C(=O)N[C@@H](C)C(=O)N[C@@H](CCC(=O)O)C(=O)N[C@H](C(=O)N[C@@H](CC(N)=O)C(=O)N[C@@H](CCCCN)C(=O)N[C@@H](CCC(N)=O)C(=O)N[C@H](C(=O)N[C@@H](CC(C)C)C(=O)N[C@@H](C)C(=O)N[C@@H](CCC(N)=O)C(=O)N[C@H](C(N)=O)C(C)C)[C@@H](C)CC)[C@@H](C)O)[C@@H](C)CC)[C@@H](C)CC)C(C)C)C(C)C", "note": "[149 (Comp Y)] (H-IVLSLDVPIKLK([AEEA-AEEA-γGlu-C18 diacid])KILLEQEKQKKQREQAETNKQILAQV-NH2)", "values": [
      {"measurement": "AUC(0-t)", "setting": "[1]; IV, 0.1 mg/kg", "result": 2760, "unit": "ng·h/mL"},
      {"measurement": "half-life", "setting": "[1]; IV, 0.1 mg/kg", "result": 4.3, "unit": "h"},
      {"measurement": "AUC(0-t)", "setting": "[1]; SC, 1.0 mg/kg", "result": 14500, "unit": "ng·h/mL"},
      {"measurement": "Cmax", "setting": "[1]; SC, 1.0 mg/kg", "result": 1040, "unit": "ng/mL"},
      {"measurement": "Tmax", "setting": "[1]; SC, 1.0 mg/kg", "result": 2, "unit": "h"},
      {"measurement": "half-life", "setting": "[1]; SC, 1.0 mg/kg", "result": 4, "unit": "h"}
    ]},
    {"compound": "CC[C@H](C)[C@H](NC(C)=O)C(=O)N[C@H](C(=O)N[C@@H](CC(C)C)C(=O)N[C@@H](CO)C(=O)N[C@@H](CC(C)C)C(=O)N[C@@H](CC(=O)O)C(=O)N[C@@H](C(=O)N1CCC[C@H]1C(=O)N[C@H](C(=O)N[C@@H](CCCCN)C(=O)N[C@@H](CC(C)C)C(=O)N[C@@H](CCCCNC(=O)CC[C@H](NC(=O)CCCCCCCCCCCCCCCCCCC(=O)O)C(=O)O)C(=O)N[C@@H](CCCCN)C(=O)N[C@H](C(=O)N[C@@H](CC(C)C)C(=O)N[C@@H](CC(C)C)C(=O)N[C@@H](CCC(=O)O)C(=O)N[C@@H](CCC(N)=O)C(=O)N[C@@H](CCC(=O)O)C(=O)N[C@@H](CCCCN)C(=O)N[C@@H](CCC(N)=O)C(=O)N[C@@H](CCCCN)C(=O)N[C@@H](C)C(=O)N[C@@H](CCC(N)=O)C(=O)N[C@@H](CCCNC(=N)N)C(=O)N[C@@H](CCC(=O)O)C(=O)N[C@@H](CCC(N)=O)C(=O)N[C@@H](C)C(=O)N[C@@H](CCC(=O)O)C(=O)N[C@H](C(=O)N[C@@H](CC(N)=O)C(=O)NC(C)(C)C(=O)N[C@@H](CCC(N)=O)C(=O)N[C@H](C(=O)N[C@@H](CC(C)C)C(=O)N[C@@H](C)C(=O)N[C@@H](CCC(N)=O)C(=O)N[C@H](C(N)=O)C(C)C)[C@@H](C)CC)[C@@H](C)O)[C@@H](C)CC)[C@@H](C)CC)C(C)C)C(C)C", "note": "[compound 212] (Ac-IVLSLD[dV]PIKLK([γGlu-C20 diacid])KILLEQEKQKAQREQAETN[Aib]QILAQV-NH2)", "values": [
      {"measurement": "EC50", "setting": "[2]", "result": 0.11, "unit": "nM"},
      {"measurement": "Emax (% I)", "setting": "[3]", "result": 41, "unit": "% I"},
      {"measurement": "Buffer stability pH 7.4 % purity loss", "setting": "[4]", "result": "0.3/Not Tested %"},
      {"measurement": "AUC(0-t)", "setting": "[5]", "result": 4680, "unit": "ng·h/mL"},
      {"measurement": "Cmax", "setting": "[5]", "result": 154, "unit": "ng/mL"},
      {"measurement": "Tmax", "setting": "[5]", "result": 14, "unit": "h"},
      {"measurement": "half-life", "setting": "[5]", "result": 8, "unit": "h"},
      {"measurement": "AUC(0-t)", "setting": "[1]; IV, 0.025 mg/kg", "result": 4840, "unit": "ng·h/mL"},
      {"measurement": "half-life", "setting": "[1]; IV, 0.025 mg/kg", "result": 8, "unit": "h"}
    ]}
  ]
}
